Test results published in PubChem BioAssay (NCI).
Where “and” joins values, the source holds several entries; their conditions need not be identical. Identical values can stand only once.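 Protocol summary: plate cells (96-well), add compound at 5 concentrations, incubate 48 h, interpolate endpoints linearly. At the GI50, growth is halved. TGI: concentration producing complete growth inhibition.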 Where a SMILES comes first, the peptide text is derived from it. [ ]: non-standard residue; d: D form. The star is where a group is joined. ξ: configuration not given here. X6 = FC(F)(F)c1cc(NC(=S)*)cc(C(F)(F)F)c1; ξF = NC(Cc1ccccc1)C(=O)O

System: MDA-MB-468 breast
Test: inhibition of tumour cell growth, NCI panel, 48 h

For O=C(Nc1ccc(Cl)c(Cl)c1)Nc1ccc(Cl)c(Cl)c1, the GI50 was 1840 nM and 2210 nM.
In the case of COC1CCC(N2C(=O)CNc3ncc(-c4ccc(C(C)(C)O)nc4)nc32)CC1 (stereo not given), the GI50 is reported as 430 nM and 407 nM.

O=C(Nc1ccc(Cl)c(Cl)c1)Nc1ccc(Cl)c(Cl)c1 was tested, and the TGI was 6690 nM and 6100 nM.
For COC1CCC(N2C(=O)CNc3ncc(-c4ccc(C(C)(C)O)nc4)nc32)CC1 (stereo not given), the TGI was 3510 nM and 5380 nM.

NC(=O)c1sc(-n2cnc3ccccc32)cc1OCc1ccccc1Br and COc1ccc2[nH]cc(-c3csc4nc(-c5ccccc5)cn34)c2c1 are within 1.5-fold of each other in GI50: 340 nM for the first, 362 nM for the second.

First: OCc1ccc(N2CCC2c2ccc(F)cc2)cc1Cl (stereo not given)
Second: NC(=O)c1cccc2cn(-c3ccc([C@@H]4CCCNC4)cc3)nc12
The GI50 of the first is 200-fold lower: 30.4 nM for the first, 6090 nM for the second.

CCCCCN(CCCCC)CC(O)c1cc(C)c2ccc3cc(C(C)C)ccc3c2c1 (stereo not given) and CCCCCN(CCCCC)CCCNc1c2c(nc3ccc(Cl)cc13)CCCC2 are within 1.5-fold of each other in GI50: 1740 nM for the first, 2440 nM for the second.

First: COc1ccc2c(C3=C(c4cn(C)c5ccccc45)C(=O)NC3=O)cn(C)c2c1
Second: Cn1cc(C2=C(c3cn(C)c4ncccc34)C(=O)NC2=O)c2ccccc21
The GI50 of the first is 49-fold lower: 112 nM for the first, 5470 nM for the second.

O=C(/C=C/C12c3ccccc3C(c3ccccc31)C1C(=O)NC(=O)C12)c1ccncc1 (stereo not given) and C#Cc1ccc(-n2c(/C=C/c3ccc(C(F)(F)F)cc3)nc3ncccc3c2=O)cc1 are within 1.5-fold of each other in GI50: 1820 nM for the first, 1510 nM for the second.

First: Nc1nc(-c2cccc([N+](=O)[O-])c2)c(N=Nc2cccc([N+](=O)[O-])c2)s1
Second: O=C1/C(=C/c2cccc([N+](=O)[O-])c2)COc2ccc(O)cc21
The GI50 of the first is 13-fold higher: 30500 nM for the first, 2260 nM for the second.

O=C1CC(c2ccc3c(c2)OCO3)Nc2ccccc21 (stereo not given) and CCC(CO)Nc1nc2ccc(Cl)cc2c2ccccc12 (stereo not given) are within 1.5-fold of each other in GI50: 4220 nM for the first, 5280 nM for the second.

First: CO[C@H](C(=O)[C@@H](O)[C@@H](C)O)[C@@H]1Cc2cc3cc(O[C@H]4C[C@@H](O[C@H]5C[C@@H](O)[C@H](O)C(C)O5)[C@H](O)C(C)O4)c(C)c(O)c3c(O)c2C(=O)[C@H]1O[C@H]1C[C@@H](O[C@H]2C[C@@H](O[C@H]3C[C@](C)(O)C(=O)C(C)O3)[C@@H](O)C(C)O2)[C@H](O)C(C)O1 (stereo not given in full)
Second: CC(C)CCC[C@@H](C)[C@H]1CC[C@H]2[C@@H]3CC=C4C[C@@H](C(C(=O)O)C(=O)O)CC[C@]4(C)[C@H]3CC[C@]12C
The GI50 of the first is 4.9-fold lower: 68.4 nM for the first, 337 nM for the second.

Cc1ccc(C(=O)/C(=C/c2ccc([N+](=O)[O-])cc2)SCc2ccc(Cl)cc2)cc1 and COc1cc(-c2nn(-c3ccc(NC(=O)c4ccc(Cl)c(C(F)(F)F)c4)cc3)cc2-c2ccncc2)ccc1Cl are within 1.5-fold of each other in GI50: 2760 nM for the first, 2950 nM for the second.

Cc1nc2ccccc2c(N)c1-c1cc(C)c2c(C)nc3ccccc3c2n1 and Clc1ccc2c(NCCCCNc3nc(N4CCCCC4)nc4ccccc34)ccnc2c1 are the same in GI50: 1640 nM for the first, 1640 nM for the second.

First: COC1=CC(c2ccc[nH]2)=N/C1=C\c1[nH]c(C)c(C(=O)OC(C)C)c1C
Second: COC(=O)[C@@H](NC(=O)CNC(=O)[C@H]1CCCN1C(=O)C(Cc1ccccc1)NC(=S)Nc1cc(C(F)(F)F)cc(C(F)(F)F)c1)C(C)C (stereo not given in full) (X6-[ξF][dP]GV-OMe)
The GI50 of the first is 14-fold lower: 111 nM for the first, 1500 nM for the second.

CC/C=C\CCC/C=C1/C(=O)C=C[C@@H]1C/C=C\CCCC(=O)OC showed a GI50 of 3200 nM.

NC(=O)c1sc(-n2cnc3ccccc32)cc1OCc1ccccc1Br and COc1ccc2[nH]cc(-c3csc4nc(-c5ccccc5)cn34)c2c1 are within 1.5-fold of each other in TGI: 2180 nM for the first, 2070 nM for the second.

First: OCc1ccc(N2CCC2c2ccc(F)cc2)cc1Cl (stereo not given)
Second: NC(=O)c1cccc2cn(-c3ccc([C@@H]4CCCNC4)cc3)nc12
The TGI of the first is 75-fold lower: 251 nM for the first, 18900 nM for the second.

Going from CCCCCN(CCCCC)CC(O)c1cc(C)c2ccc3cc(C(C)C)ccc3c2c1 (stereo not given) to CCCCCN(CCCCC)CCCNc1c2c(nc3ccc(Cl)cc13)CCCC2, the TGI rises from 3290 nM to 6310 nM (1.9-fold).

First: COc1ccc2c(C3=C(c4cn(C)c5ccccc45)C(=O)NC3=O)cn(C)c2c1
Second: Cn1cc(C2=C(c3cn(C)c4ncccc34)C(=O)NC2=O)c2ccccc21
The TGI of the first is lower: 10200 nM for the first, over 25000 nM for the second.

O=C(/C=C/C12c3ccccc3C(c3ccccc31)C1C(=O)NC(=O)C12)c1ccncc1 (stereo not given) and C#Cc1ccc(-n2c(/C=C/c3ccc(C(F)(F)F)cc3)nc3ncccc3c2=O)cc1 are within 1.5-fold of each other in TGI: 4020 nM for the first, 3630 nM for the second.

First: Nc1nc(-c2cccc([N+](=O)[O-])c2)c(N=Nc2cccc([N+](=O)[O-])c2)s1
Second: O=C1/C(=C/c2cccc([N+](=O)[O-])c2)COc2ccc(O)cc21
The TGI of the first is higher: over 100000 nM for the first, 5000 nM for the second.

O=C1CC(c2ccc3c(c2)OCO3)Nc2ccccc21 (stereo not given) and CCC(CO)Nc1nc2ccc(Cl)cc2c2ccccc12 (stereo not given) are within 1.5-fold of each other in TGI: 23900 nM for the first, 19500 nM for the second.

Going from CO[C@H](C(=O)[C@@H](O)[C@@H](C)O)[C@@H]1Cc2cc3cc(O[C@H]4C[C@@H](O[C@H]5C[C@@H](O)[C@H](O)C(C)O5)[C@H](O)C(C)O4)c(C)c(O)c3c(O)c2C(=O)[C@H]1O[C@H]1C[C@@H](O[C@H]2C[C@@H](O[C@H]3C[C@](C)(O)C(=O)C(C)O3)[C@@H](O)C(C)O2)[C@H](O)C(C)O1 (stereo not given in full) to CC(C)CCC[C@@H](C)[C@H]1CC[C@H]2[C@@H]3CC=C4C[C@@H](C(C(=O)O)C(=O)O)CC[C@]4(C)[C@H]3CC[C@]12C, the TGI rises from 515 nM to 892 nM (1.7-fold).

First: Cc1ccc(C(=O)/C(=C/c2ccc([N+](=O)[O-])cc2)SCc2ccc(Cl)cc2)cc1
Second: COc1cc(-c2nn(-c3ccc(NC(=O)c4ccc(Cl)c(C(F)(F)F)c4)cc3)cc2-c2ccncc2)ccc1Cl
The TGI of the first is 2.1-fold lower: 7460 nM for the first, 16000 nM for the second.

Cc1nc2ccccc2c(N)c1-c1cc(C)c2c(C)nc3ccccc3c2n1 and Clc1ccc2c(NCCCCNc3nc(N4CCCCC4)nc4ccccc34)ccnc2c1 are within 1.5-fold of each other in TGI: 3730 nM for the first, 3630 nM for the second.

First: COC1=CC(c2ccc[nH]2)=N/C1=C\c1[nH]c(C)c(C(=O)OC(C)C)c1C
Second: COC(=O)[C@@H](NC(=O)CNC(=O)[C@H]1CCCN1C(=O)C(Cc1ccccc1)NC(=S)Nc1cc(C(F)(F)F)cc(C(F)(F)F)c1)C(C)C (stereo not given in full) (X6-[ξF][dP]GV-OMe)
The TGI of the first is 2.3-fold lower: 1390 nM for the first, 3230 nM for the second.

Molecule CC/C=C\CCC/C=C1/C(=O)C=C[C@@H]1C/C=C\CCCC(=O)OC has a TGI of 10100 nM.
